Measurements published in PubChem BioAssay AID1745844 (Carcinogenic Potency Database (CPDB), 2022).

System: rodent lifetime carcinogenesis bioassay, tumor incidence TD50
Experiment: carcinogenic potency in animals, long-term in vivo studies, CPDB compilation (AID 1745844)
Settings: rat

For `C=CCl`, the TD50 (strain Charles River CD (Sprague-Dawley), females, inhaled, site: liver, lesion: hemangiosarcoma, dosed 26 weeks, study length 78 weeks) was 115 mg/kg/day, the TD50 (strain Charles River CD (Sprague-Dawley), females, inhaled, site: liver, lesion: hemangiosarcoma, dosed 43 weeks, study length 95 weeks) was 69.5 mg/kg/day and the TD50 (strain Charles River CD (Sprague-Dawley), females, inhaled, site: liver, lesion: hepatocellular carcinoma, dosed 43 weeks, study length 95 weeks) was 225 mg/kg/day. It also gave a TD50 (strain Charles River CD (Sprague-Dawley), females, inhaled, site: liver, lesion: neoplastic nodule, dosed 43 weeks, study length 95 weeks) of 315 mg/kg/day, a TD50 (strain Charles River CD (Sprague-Dawley), males, inhaled, site: liver, lesion: hemangiosarcoma, dosed 43 weeks, study length 95 weeks) of 103 mg/kg/day and a TD50 (strain Charles River CD (Sprague-Dawley), males, inhaled, site: liver, lesion: hepatocellular carcinoma, dosed 26 weeks, study length 78 weeks) of 52.9 mg/kg/day. The TD50 (strain Charles River CD (Sprague-Dawley), males, inhaled, site: liver, lesion: hepatocellular carcinoma, dosed 43 weeks, study length 95 weeks) was 265 mg/kg/day, the TD50 (strain Charles River CD (Sprague-Dawley), males, inhaled, site: liver, lesion: neoplastic nodule, dosed 26 weeks, study length 78 weeks) was 11.5 mg/kg/day and the TD50 (strain Charles River CD (Sprague-Dawley), males, inhaled, site: liver, lesion: neoplastic nodule, dosed 43 weeks, study length 95 weeks) was 34.6 mg/kg/day. For the same compound, the TD50 (strain Fischer 344, females, inhaled, site: all sites, lesion: hemangiosarcoma, dosed 26 weeks, study length 104 weeks) was 91.2 mg/kg/day, the TD50 (strain Fischer 344, females, inhaled, site: all sites, lesion: hemangiosarcoma, dosed 52 weeks, study length 104 weeks) was 29.5 mg/kg/day and the TD50 (strain Fischer 344, females, inhaled, site: all sites, lesion: hemangiosarcoma, dosed 78 weeks, study length 104 weeks) was 32.8 mg/kg/day. The TD50 (strain Fischer 344, females, inhaled, site: all sites, lesion: hemangiosarcoma, dosed 104 weeks, study length 104 weeks) was 23.6 mg/kg/day, the TD50 (strain Fischer 344, females, inhaled, site: liver, lesion: hepatocellular carcinoma, dosed 26 weeks, study length 104 weeks) was 103 mg/kg/day and the TD50 (strain Fischer 344, females, inhaled, site: liver, lesion: hepatocellular carcinoma, dosed 52 weeks, study length 104 weeks) was 101 mg/kg/day. The TD50 (strain Fischer 344, females, inhaled, site: liver, lesion: hepatocellular carcinoma, dosed 78 weeks, study length 104 weeks) was 65.2 mg/kg/day, the TD50 (strain Fischer 344, females, inhaled, site: liver, lesion: hepatocellular carcinoma, dosed 104 weeks, study length 104 weeks) was 77.2 mg/kg/day and the TD50 (strain Fischer 344, females, inhaled, site: liver, lesion: neoplastic nodule, dosed 26 weeks, study length 104 weeks) was 17.6 mg/kg/day. It also gave a TD50 (strain Fischer 344, females, inhaled, site: liver, lesion: neoplastic nodule, dosed 52 weeks, study length 104 weeks) of 16.2 mg/kg/day, a TD50 (strain Fischer 344, females, inhaled, site: liver, lesion: neoplastic nodule, dosed 78 weeks, study length 104 weeks) of 96.3 mg/kg/day and a TD50 (strain Fischer 344, females, inhaled, site: liver, lesion: neoplastic nodule, dosed 104 weeks, study length 104 weeks) of 166 mg/kg/day. The TD50 (strain Fischer 344, females, inhaled, site: mammary gland, lesion: adenocarcinoma, dosed 52 weeks, study length 104 weeks) was 38 mg/kg/day, the TD50 (strain Fischer 344, females, inhaled, site: mammary gland, lesion: adenocarcinoma, dosed 78 weeks, study length 104 weeks) was 74.2 mg/kg/day and the TD50 (strain Fischer 344, females, inhaled, site: mammary gland, lesion: adenocarcinoma, dosed 104 weeks, study length 104 weeks) was 264 mg/kg/day. The TD50 (strain Fischer 344, females, inhaled, site: mammary gland, lesion: fibroadenoma, dosed 26 weeks, study length 104 weeks) was 15.1 mg/kg/day, the TD50 (strain Fischer 344, females, inhaled, site: mammary gland, lesion: fibroadenoma, dosed 52 weeks, study length 104 weeks) was 14.6 mg/kg/day and the TD50 (strain Fischer 344, females, inhaled, site: mammary gland, lesion: fibroadenoma, dosed 78 weeks, study length 104 weeks) was 29.7 mg/kg/day. The TD50 (strain Fischer 344, females, inhaled, site: mammary gland, lesion: fibroadenoma, dosed 104 weeks, study length 104 weeks) was 32.9 mg/kg/day, the TD50 (strain Sprague-Dawley, females, by gavage, site: Zymbal's gland, lesion: carcinoma, dosed 59 weeks, study length 129 weeks) was 5.05 mg/kg/day and the TD50 (strain Sprague-Dawley, females, by gavage, site: any site (literature study), lesion: several types, types named in the paper, dosed 52 weeks, study length 127 weeks) was 35.2 mg/kg/day. For the same compound, the TD50 (strain Sprague-Dawley, females, by gavage, site: any site (literature study), lesion: several types, types named in the paper, dosed 59 weeks, study length 129 weeks) was 0.878 mg/kg/day, the TD50 (strain Sprague-Dawley, females, by gavage, site: extrahepatic tissue, lesion: angioma, dosed 52 weeks, study length 127 weeks) was 408 mg/kg/day and the TD50 (strain Sprague-Dawley, females, by gavage, site: extrahepatic tissue, lesion: angiosarcoma, dosed 52 weeks, study length 127 weeks) was 454 mg/kg/day. It also gave a TD50 (strain Sprague-Dawley, females, by gavage, site: extrahepatic tissue, lesion: angiosarcoma, dosed 59 weeks, study length 129 weeks) of 10.9 mg/kg/day, a TD50 (strain Sprague-Dawley, females, by gavage, site: kidney, lesion: nephroblastoma, dosed 52 weeks, study length 127 weeks) of 182 mg/kg/day and a TD50 (strain Sprague-Dawley, females, by gavage, site: liver, lesion: angioma, dosed 52 weeks, study length 127 weeks) of 207 mg/kg/day. For the same compound, the TD50 (strain Sprague-Dawley, females, by gavage, site: liver, lesion: angiosarcoma, dosed 52 weeks, study length 127 weeks) was 38.6 mg/kg/day, the TD50 (strain Sprague-Dawley, females, by gavage, site: liver, lesion: angiosarcoma, dosed 59 weeks, study length 129 weeks) was 3.58 mg/kg/day and the TD50 (strain Sprague-Dawley, females, inhaled, site: Zymbal's gland, lesion: carcinoma, dosed 25 weeks, study length 127 weeks) was 1200 mg/kg/day. The TD50 (strain Sprague-Dawley, females, inhaled, site: Zymbal's gland, lesion: carcinoma, dosed 25 weeks, study length 135 weeks) was 569 mg/kg/day, the TD50 (strain Sprague-Dawley, females, inhaled, site: Zymbal's gland, lesion: carcinoma, dosed 52 weeks, study length 111 weeks) was 67.9 mg/kg/day and the TD50 (strain Sprague-Dawley, females, inhaled, site: Zymbal's gland, lesion: carcinoma, dosed 52 weeks, study length 139 weeks) was 1070 mg/kg/day. It also gave a TD50 (strain Sprague-Dawley, females, inhaled, site: Zymbal's gland, lesion: carcinoma, dosed 71 weeks, study length 71 weeks) of 1190 mg/kg/day, a TD50 (strain Sprague-Dawley, females, inhaled, site: any site (literature study), lesion: several types, types named in the paper, dosed 25 weeks, study length 127 weeks) of 309 mg/kg/day and a TD50 (strain Sprague-Dawley, females, inhaled, site: any site (literature study), lesion: several types, types named in the paper, dosed 25 weeks, study length 135 weeks) of 51.5 mg/kg/day. For the same compound, the TD50 (strain Sprague-Dawley, females, inhaled, site: any site (literature study), lesion: several types, types named in the paper, dosed 52 weeks, study length 111 weeks) was 2.12 mg/kg/day, the TD50 (strain Sprague-Dawley, females, inhaled, site: any site (literature study), lesion: several types, types named in the paper, dosed 52 weeks, study length 139 weeks) was 37.4 mg/kg/day and the TD50 (strain Sprague-Dawley, females, inhaled, site: any site (literature study), lesion: several types, types named in the paper, dosed 71 weeks, study length 71 weeks) was 70.5 mg/kg/day. The TD50 (strain Sprague-Dawley, females, inhaled, site: brain, lesion: neuroblastoma, dosed 25 weeks, study length 135 weeks) was 3630 mg/kg/day, the TD50 (strain Sprague-Dawley, females, inhaled, site: brain, lesion: neuroblastoma, dosed 52 weeks, study length 131 weeks) was 4850 mg/kg/day and the TD50 (strain Sprague-Dawley, females, inhaled, site: brain, lesion: neuroblastoma, dosed 71 weeks, study length 71 weeks) was 184 mg/kg/day. It also gave a TD50 (strain Sprague-Dawley, females, inhaled, site: extrahepatic tissue, lesion: angioma, dosed 25 weeks, study length 135 weeks) of 2990 mg/kg/day.
